Experimental data taken from ChEMBL document CHEMBL4673219, “Novel 5,6-disubstituted pyrrolo[2,3-d]pyrimidine derivatives as broad spectrum antiproliferative agents: Synthesis, cell based assays, kinase profile and molecular docking study” (Bioorg Med Chem, 2018).
Where “and” joins values, the source holds several entries; their conditions need not be identical. Equal entries are not always repeated.

Legend:
Format in all cases: functional
[1] = test system: SK-BR-3; assay: Antiproliferative activity against human SK-BR-3 cells assessed as cell growth inhibition at 10 uM measured after 72 hrs by MTT assay relative to control; settings: read-out: GI
[2] = test system: SW-620; assay: Growth inhibition of human SW-620 cells assessed as growth percentage at 10 uM incubated for 48 hrs by sulforhodamine B assay relative to control; settings: read-out: Activity
[3] = test system: SN12C; assay: Growth inhibition of human SN12C cells assessed as growth percentage at 100 uM incubated for 48 hrs by sulforhodamine B assay relative to control; settings: read-out: Activity
[4] = test system: MOLT-4; assay: Growth inhibition of human MOLT-4 cells assessed as growth percentage at 0.1 uM incubated for 48 hrs by sulforhodamine B assay relative to control; settings: read-out: Activity
[5] = test system: K562; assay: Growth inhibition of human K562 cells assessed as growth percentage at 0.1 uM incubated for 48 hrs by sulforhodamine B assay relative to control; settings: read-out: Activity
[6] = test system: SK-MEL-5; assay: Growth inhibition of human SK-MEL-5 cells assessed as growth percentage at 10 uM incubated for 48 hrs by sulforhodamine B assay relative to control; settings: read-out: Activity
[7] = test system: U-251; assay: Growth inhibition of human U-251 cells assessed as growth percentage at 0.1 uM incubated for 48 hrs by sulforhodamine B assay relative to control; settings: read-out: Activity
[8] = test system: TK-10; assay: Growth inhibition of human TK-10 cells assessed as growth percentage at 1 uM incubated for 48 hrs by sulforhodamine B assay relative to control; settings: read-out: Activity
[9] = test system: HOP-92; assay: Growth inhibition of human HOP-92 cells assessed as growth percentage at 100 uM incubated for 48 hrs by sulforhodamine B assay relative to control; settings: read-out: Activity
[10] = test system: DU-145; assay: Growth inhibition of human DU-145 cells assessed as growth percentage at 0.1 uM incubated for 48 hrs by sulforhodamine B assay relative to control; settings: read-out: Activity
[11] = test system: LOX IMVI; assay: Growth inhibition of human LOX IMVI cells incubated for 48 hrs by sulforhodamine B assay
[12] = test system: SF-295; assay: Growth inhibition of human SF-295 cells assessed as growth percentage at 10 uM incubated for 48 hrs by sulforhodamine B assay relative to control; settings: read-out: Activity
[13] = test system: MDA-MB-468; assay: Growth inhibition of human MDA-MB-468 cells assessed as growth percent at 0.1 uM incubated for 48 hrs by sulforhodamine B assay relative to control; settings: read-out: Activity
[14] = test system: HCT-116; assay: Antiproliferative activity against human HCT-116 cells assessed as cell growth inhibition measured after 72 hrs by MTT assay
[15] = test system: HCT-116; assay: Growth inhibition of human HCT-116 cells assessed as growth percentage at 10 uM incubated for 48 hrs by sulforhodamine B assay relative to control; settings: read-out: Activity
[16] = test system: NCI-H522; assay: Growth inhibition of human NCI-H522 cells incubated for 48 hrs by sulforhodamine B assay
[17] = test system: NCI-H23; assay: Growth inhibition of human NCI-H23 cells assessed as growth percentage at 0.01 uM incubated for 48 hrs by sulforhodamine B assay relative to control; settings: read-out: Activity
[18] = test system: OVCAR-4; assay: Growth inhibition of human OVCAR-4 cells incubated for 48 hrs by sulforhodamine B assay; settings: for CC50: read-out: LC50 (the source's name)
[19] = test system: UACC-62; assay: Growth inhibition of human UACC-62 cells assessed as growth percentage at 100 uM incubated for 48 hrs by sulforhodamine B assay relative to control; settings: read-out: Activity
[20] = test system: UO-31; assay: Growth inhibition of human UO-31 cells assessed as growth percentage at 100 uM incubated for 48 hrs by sulforhodamine B assay relative to control; settings: read-out: Activity
[21] = test system: Hs-578T; assay: Growth inhibition of human Hs-578T cells incubated for 48 hrs by sulforhodamine B assay
[22] = test system: HT-29; assay: Growth inhibition of human HT-29 cells assessed as growth percentage at 1 uM incubated for 48 hrs by sulforhodamine B assay relative to control; settings: read-out: Activity
[23] = test system: MDA-MB-468; assay: Growth inhibition of human MDA-MB-468 cells incubated for 48 hrs by sulforhodamine B assay
[24] = test system: COLO 205; assay: Growth inhibition of human COLO 205 cells assessed as growth percentage at 1 uM incubated for 48 hrs by sulforhodamine B assay relative to control; settings: read-out: Activity
[25] = test system: SK-OV-3; assay: Growth inhibition of human SK-OV-3 cells assessed as growth percentage at 1 uM incubated for 48 hrs by sulforhodamine B assay relative to control; settings: read-out: Activity
[26] = test system: MDA-MB-435; assay: Growth inhibition of human MDA-MB-435 cells assessed as growth percentage at 10 uM incubated for 48 hrs by sulforhodamine B assay relative to control; settings: read-out: Activity
[27] = test system: KM12; assay: Growth inhibition of human KM12 cells assessed as growth percentage at 0.01 uM incubated for 48 hrs by sulforhodamine B assay relative to control; settings: read-out: Activity
[28] = test system: OVCAR-4; assay: Growth inhibition of human OVCAR-4 cells assessed as growth percentage at 1 uM incubated for 48 hrs by sulforhodamine B assay relative to control; settings: read-out: Activity
[29] = test system: SK-OV-3; assay: Growth inhibition of human SK-OV-3 cells assessed as growth percentage at 0.01 uM incubated for 48 hrs by sulforhodamine B assay relative to control; settings: read-out: Activity
[30] = test system: A549; assay: Growth inhibition of human A549/ATCC cells assessed as growth percentage at 10 uM incubated for 48 hrs by sulforhodamine B assay relative to control; settings: read-out: Activity
[31] = test system: NCI-H522; assay: Growth inhibition of human NCI-H522 cells assessed as growth percentage at 1 uM incubated for 48 hrs by sulforhodamine B assay relative to control; settings: read-out: Activity
[32] = test system: M14; assay: Growth inhibition of human M14 cells assessed as growth percentage at 100 uM incubated for 48 hrs by sulforhodamine B assay relative to control; settings: read-out: Activity
[33] = test system: HOP-62; assay: Growth inhibition of human HOP-62 cells assessed as growth percentage at 10 uM incubated for 48 hrs by sulforhodamine B assay relative to control; settings: read-out: Activity
[34] = test system: HOP-62; assay: Growth inhibition of human HOP-62 cells assessed as growth percentage at 1 uM incubated for 48 hrs by sulforhodamine B assay relative to control; settings: read-out: Activity
[35] = test system: SNB-75; assay: Growth inhibition of human SNB-75 cells assessed as growth percentage at 0.01 uM incubated for 48 hrs by sulforhodamine B assay relative to control; settings: read-out: Activity
[36] = test system: DU-145; assay: Growth inhibition of human DU-145 cells assessed as growth percentage at 1 uM incubated for 48 hrs by sulforhodamine B assay relative to control; settings: read-out: Activity
[37] = test system: HOP-62; assay: Growth inhibition of human HOP-62 cells assessed as growth percentage at 100 uM incubated for 48 hrs by sulforhodamine B assay relative to control; settings: read-out: Activity
[38] = test system: SK-MEL-5; assay: Growth inhibition of human SK-MEL-5 cells assessed as growth percentage at 0.1 uM incubated for 48 hrs by sulforhodamine B assay relative to control; settings: read-out: Activity
[39] = test system: Hs-578T; assay: Growth inhibition of human Hs-578T cells assessed as growth percentage at 0.01 uM incubated for 48 hrs by sulforhodamine B assay relative to control; settings: read-out: Activity

## CCCCCCCC(=O)Nc1nc2[nH]c(CN3CCN(Cc4cccc(F)c4)CC3)c(CN3CCN(Cc4cccc(F)c4)CC3)c2c(=O)[nH]1
[1]
  inhibition of growth at 10 µM: 93.1%
[2]
  growth at 10 µM: -78.5%
[3]
  growth at 100 µM: -69%
[4]
  growth at 0.1 µM: 95%
[5]
  growth at 0.1 µM: 87%
[6]
  growth at 10 µM: 33.5%
[7]
  growth at 0.1 µM: 92%
[8]
  growth at 1 µM: 94%
[9]
  growth at 100 µM: -95%
[10]
  growth at 0.1 µM: 101%
[11]
  GI50: 0.2 µM
  LC50 (concentration killing 50% of cells): 8.87 µM and 0.89 µM
  TGI: 0.42 µM
[11]; Homo sapiens, LOX IMVI
  GI50: 0.195 µM
  TGI: 0.416 µM
[12]
  growth at 10 µM: -69.2%
[13]
  growth at 0.1 µM: 95%
[14]
  GI50: 2.25 µM
[15]
  growth at 10 µM: -96.7%
[16]
  GI50: 1.91 µM
  LC50: 6.88 µM
  TGI: 3.62 µM
[17]
  growth at 0.01 µM: 98%
[18]
  GI50: 1.21 µM
  TGI: 2.54 µM
  CC50: 5.31 µM
[19]
  growth at 100 µM: -90%
[20]
  growth at 100 µM: -81%
[21]
  GI50: 1.72 µM
  TGI: 4.18 µM
[22]
  growth at 1 µM: -26%
[23]; 48 h
  GI50: 0.48 µM
[23]; Homo sapiens, MDA-MB-468
  LC50 (concentration killing 50% of cells): 5.31 µM
  TGI: 1.84 µM
[23]; Homo sapiens, MDA-MB-468, 48 h
  GI50: 0.477 µM
[24]
  growth at 1 µM: 74%
[25]
  growth at 1 µM: 107%
[26]
  growth at 10 µM: -98.1%
[27]
  growth at 0.01 µM: 96%
[28]
  growth at 1 µM: 63%
[29]
  growth at 0.01 µM: 108%
[30]
  growth at 10 µM: -74.7%
[31]
  growth at 1 µM: 100%
[32]
  growth at 100 µM: -73%
[33]
  growth at 10 µM: -93.2%
[34]
  growth at 1 µM: 75%
[35]
  growth at 0.01 µM: 93%
[36]
  growth at 1 µM: 56%
[37]
  growth at 100 µM: -95%
[38]
  growth at 0.1 µM: 101%
[39]
  growth at 0.01 µM: 97%

## Nc1nc2[nH]c(CN3CCN(c4cc(Cl)cc(Cl)c4)CC3)c(CN3CCN(c4cc(Cl)cc(Cl)c4)CC3)c2c(=O)[nH]1
[1]
  inhibition of growth at 10 µM: 90%
[2]
  growth at 10 µM: -16.3%
[3]
  growth at 100 µM: -35%
[4]
  growth at 0.1 µM: 104%
[5]
  growth at 0.1 µM: 96%
[6]
  growth at 10 µM: 91%
[7]
  growth at 0.1 µM: 97%
[8]
  growth at 1 µM: 100%
[9]
  growth at 100 µM: -72%
[10]
  growth at 0.1 µM: 109%
[11]; Homo sapiens, LOX IMVI
  GI50: 1.94 µM
  TGI: 3.57 µM
[12]
  growth at 10 µM: 98.4%
[13]
  growth at 0.1 µM: 94%
[14]
  GI50: 2.89 µM
[15]
  growth at 10 µM: -10.2%
[16]
  GI50: 1.74 µM
  TGI: 3.44 µM
[17]
  growth at 0.01 µM: 104%
[18]
  GI50: 1.58 µM
  TGI: 3.15 µM
  CC50: 6.25 µM
[19]
  growth at 100 µM: -49%
[20]
  growth at 100 µM: -57%
[21]
  GI50: 1.78 µM
  TGI: 4.22 µM
[22]
  growth at 1 µM: 91%
[23]; Homo sapiens, MDA-MB-468
  TGI: 3.75 µM
[23]; Homo sapiens, MDA-MB-468, 48 h
  GI50: 1.72 µM
[24]
  growth at 1 µM: 85%
[25]
  growth at 1 µM: 102%
[26]
  growth at 10 µM: 8.61%
[27]
  growth at 0.01 µM: 101%
[28]
  growth at 1 µM: 83%
[29]
  growth at 0.01 µM: 95%
[30]
  growth at 10 µM: 72.7%
[31]
  growth at 1 µM: 91%
[32]
  growth at 100 µM: -54%
[33]
  growth at 10 µM: 84.2%
[34]
  growth at 1 µM: 85%
[35]
  growth at 0.01 µM: 81%
[36]
  growth at 1 µM: 105%
[37]
  growth at 100 µM: -38%
[38]
  growth at 0.1 µM: 98%
[39]
  growth at 0.01 µM: 89%
